Key:
[1] = system: GH4C1 rat pituitary cells; assay: Cytotoxicity against GH4C1 rat pituitary tissue culture cells; format: cell-based
[2] = system: Gomphonema parvum (diatom); assay: Algal growth (chlorophyll a) under euglenophycin exposure; format: cell-based; conditions: 0.3, 3 and 30 mg/L; chlorophyll a read daily for four days; FIG. 2
Experimental: (§1) Clonal isolates of five representative cyanoprokaryote, diatom, and green algae were grown in BG11 media at 28 C on a 14:10 L:D cycle. At mid-exponential phase growth, […] aliquots of each culture was transferred to 96-well plates. Carrier solvent (control) and euglenophycin toxin was added to three of more replicate vials (at 0, 300 ppb, 3 ppm, and 30 ppm) and growth was monitored for […].
(§2) To evaluate the euglenophycin against the growth rate of selected algal taxa. Cultures of five algal species grown in batch culture were exposed to the euglenophycin. The culture include Microcystis aeruginosa (cyanobacteria), Planktothrix (cyanobacteria), Gomphonema parvum (diatom), Scenedesmus dimorphus (green algae), and Oocystis polymorpha (green algae). The cultures were grown using 14:10 hour L:D cycles, in BG11 culture media. When the alga reached exponential phase, the cells were dispensed into Falcon 96-well tissue culture plates and were dosed with euglenophycin at 0, 0.3, 3 and 30 mg/L concentrations. Solvent blanks (acetone) were included in the control test. Readings of chlorophyll a were made on a BMG Labtech FLUOstar Omega spectrometer daily for four days.

[3] = system: Microcystis aeruginosa (cyanobacteria); assay: as above; format: cell-based; conditions: 0.3, 3 and 30 mg/L; chlorophyll a read daily for four days; FIG. 2
Experimental: as §1, §2

[4] = system: Oocystis polymorpha (green algae); assay: as above; format: cell-based; conditions: 0.3, 3 and 30 mg/L; chlorophyll a read daily for four days; FIG. 2
Experimental: as §1, §2

[5] = system: Planktothrix (cyanobacteria); assay: as above; format: cell-based; conditions: 0.3, 3 and 30 mg/L; chlorophyll a read daily for four days; FIG. 2
Experimental: as §1, §2

[6] = system: Scenedesmus dimorphus (green algae); assay: as above; format: cell-based; conditions: 0.3, 3 and 30 mg/L; chlorophyll a read daily for four days; FIG. 2
Experimental: as §1, §2

[7] = system: fish; assay: Fish bioassay (ichthyotoxicity); format: in vivo; conditions: purified toxin
Experimental: The toxic solvent extracts were subjected to HPLC analytical fractionation. Bioassay guided fractionation was used in all phases of separation to track sample activity and cytotoxic and/or ichthyotoxic extracts were identified. HPLC purification was carried out using a WATERS HPLC system (WATERS 2767 Sample Manager, 1525 Binary Pump, 510 pump, WATERS 2996 PDA and a WATERS ZQ Single Quadrature Mass Detector outfitted with an active flow splitter, switching valve using MASS LYNX software (Waters Corporation, Milford, Mass.). The HPLC/MS method was a water/acetone gradient with 0.2% TFA in both solvents. Extract was loaded onto a Phenomenex (Phenomenex Corporation, Torrance, Calif.) C18 LUNA 3 μm particle size, 250×4.6 mm column. The flow scheme conditions were: 1 mL/min flow rate, 90:10 Water/acetone (hold for 2 minutes). This was followed by a linear gradient over 20 minutes to 100% acetone. The acetone was held for 3 minutes prior to original flow conditions. Column temperature was held at 35° C.
NMR and mass spectral analysis provided unambiguous identification of the novel toxin. […] The euglenoids in culture appear to form the toxin independently of growth phase.

[8] = system: Ht-29 (ATCC HTB-38) adenocarcinoma cell line; assay: Toxicity against adenocarcinoma cell line Ht-29 (MTS or MTT assay); format: cell-based; conditions: summary statement; test of Example 3 / FIG. 3
Experimental: Specifically, cancer cells were grown to mid-exponential growth phase, aliquots were added to tissue culture plates with carrier (control) and varying euglenophycin toxin (25, 50, 100 mg/L final concentration), with and without 5-fluorouracil and maintained in dimethyl sulfoxide. Growth was monitored by colorimetric change associated with respiration using MTS or MTT assay).

With `CCC/C=C\CC/C=C/C=C/C1CCCC(CCCCO)N1` (centres unmarked) [euglenophycin] the “toxicity (cytotoxic activity) towards GH4C1 rat pituitary cells” value [1] was “toxicity”, the “effect on culture (chlorophyll a)” value [2] was “negatively affected” and the “effect on culture (chlorophyll a)” value [3] was “negatively affected”. For the same compound, the “effect on culture (chlorophyll a)” value [4] was “negatively affected”, the “effect on culture (chlorophyll a)” value [5] was “negatively affected” and the “effect on culture (chlorophyll a)” value [6] was “negatively affected”. The “fish mortality on re-exposure to the toxin” value [7] was “fish mortalities” and the “activity against cancerous cell lines” value [8] was “activity”.

Reference: patent US7943142B2, “Euglenoid derived alkaloid” (priority 2008, dated 2011)
